Data taken from patent US20190358181A1, “METHODS FOR AUTISM SPECTRUM DISORDER PHARMACOTHERAPY” (priority 2017, published 2019).

Experiments:
Format in all cases: in vivo, human
males with ASD [1] = experiment: ADOS-2 (Autism Diagnostic Observation Schedule, 2nd edition), SAT-1 trial, single 20 mg/kg IV suramin infusion; details: for Difference from baseline (mean ± sd) / d (Cohen's d): 45 days after treatment
Description: (§1) Two observational examinations were performed by a clinician at 3 time points: baseline (56±8 days; mean±SEM; before the infusion), 2-days post-infusion, and 6-weeks post-infusion. The two examiner-based metrics were the Autism Diagnostic Observation Schedule, 2nd edition (ADOS-2) with video and audio files recorded on 3 cameras, and the Expressive One Word Picture Vocabulary Testing (EOWPVT). Both of these observational metrics were administered by a trained and certified examiner using approved test materials. Three standardized questionnaires were completed by parents at 3 time points: baseline, 7-days post-infusion, and 6-weeks post-infusion. The three standardized questionnaires completed by parents were the 58-question Aberrant Behavior Checklist (ABC), the 75-item Autism Treatment Evaluation Checklist (ATEC), and the 33-item repetitive behavior questionnaire (RBQ). Parents were asked to complete these three instruments with reference to how their child behaved in the previous 7 days. At the end of the six weeks, we included a 24-question Clinical Global Impression (CGI) questionnaire (FIG. 16). In addition, parents were asked to list the 3 top behaviors or symptoms that they observed to be most changed over the previous 6-weeks. To minimize the misinterpretation of natural day-to-day variations in symptoms, parents were asked to mark a symptom as changed in the 6-week CGI only if it had lasted for at least 1 week.
All children met DSM-5 diagnostic criteria for autism spectrum disorders, and received confirmatory testing by Autism Diagnostic Observation Schedule, 2nd edition (ADOS-2) examination. Inclusion criteria included males, ages 4-17 years, living in the San Diego, Calif. region, with a confirmed diagnosis of ASD.
(§2) For the test dose, 50 mg of suramin hexasodium (Bayer Pharmaceuticals, Inc.) in 5 mL of saline (experimental arm, 5 patients), or 5 mL of saline only (control arm, 5 patients) were given by slow intravenous (IV) push over 3 minutes, followed by a 10 mL flush of saline. One hour after the test dose, vital signs were repeated and a single infusion of either suramin (20 mg/kg, minus the 50 mg test dose, in 50 mL, up to a maximum of 1 gram) or saline (50 mL IV) was given over 30 minutes, followed by a 10 mL flush of saline.
(§3) Behavioral and neurological effects of treatment were assessed primarily by the examiner-based ADOS-2 protocol scores and standardized vocabulary testing (Expressive One Word Picture Vocabulary Test, EOWPVT), with secondary evaluation via parent-based assessments (Aberrant Behavior Checklist (ABC) scores, Autism Treatment Evaluation Checklist (ATEC) scores, Clinical Global Impression of Improvement (CGI) scores, and Repetitive Behavior Questionnaire (RBQ) scores). See General Methods for information related to behavioral test administration. Prior to the study, diagnosis of each of the enrolled participants was confirmed by ADOS-2 comparison scores of ≥7, and non-verbal IQ was tested by Leiter-3 examination. Examiner-based outcomes (ADOS and EOWPVT) were assessed at 2-days and 6-weeks after the infusion. Parent-based outcomes (ABC, ATEC, CGI, and RBQ) were assessed at 7-days and 6-weeks after the infusion. To minimize the effects of natural behavioral variability, the parents were instructed to mark a behavior as changed only if it was persistently changed for at least 1 week.
Each child was used as their own control to examine before and after treatment effects from Example 1 in a paired t-test design for the analysis of the ADOS, EOWPVT, ABC, ATEC, RBQ (FIGS. 4-11 show individual analyses), and blood and urine safety data (FIGS. 2 and 3 show individual analyses). Paired, non-parametric analysis was by Wilcoxon signed-rank sum test. Categorical data, such as the presence or absence of adverse events or historical symptoms was analyzed by Fisher's exact test. […]

males with ASD [2] = experiment: Expressive One Word Picture Vocabulary Test (EOWPVT), SAT-1 trial
Description: as §1, with “At the end of the six weeks, we included a 24-question Clinical Global Impression (CGI) questionnaire (FIG. 16). In addition, parents were asked to list the 3 top behaviors or symptoms that they observed to be most changed over the previous 6-weeks. To minimize the misinterpretation of natural day-to-day variations in symptoms, parents were asked to mark a symptom as changed in the 6-week CGI only if it had lasted for at least 1 week.” left out
Behavioral and neurological effects of treatment were assessed primarily by the examiner-based ADOS-2 protocol scores and standardized vocabulary testing (Expressive One Word Picture Vocabulary Test, EOWPVT), with secondary evaluation via parent-based assessments (Aberrant Behavior Checklist (ABC) scores, Autism Treatment Evaluation Checklist (ATEC) scores, Clinical Global Impression of Improvement (CGI) scores, and Repetitive Behavior Questionnaire (RBQ) scores). […] Examiner-based outcomes (ADOS and EOWPVT) were assessed at 2-days and 6-weeks after the infusion. Parent-based outcomes (ABC, ATEC, CGI, and RBQ) were assessed at 7-days and 6-weeks after the infusion. […]
Each child was used as their own control to examine before and after treatment effects from Example 1 in a paired t-test design for the analysis of the ADOS, EOWPVT, ABC, ATEC, RBQ (FIGS. 4-11 show individual analyses), and blood and urine safety data (FIGS. 2 and 3 show individual analyses). […] Categorical data, such as the presence or absence of adverse events or historical symptoms was analyzed by Fisher's exact test. […]

males with ASD [3] = experiment: Autism Treatment Evaluation Checklist (ATEC), parent questionnaire, SAT-1 trial
Description: as §1, §2, §3
Each child was used as their own control to examine before and after treatment effects from Example 1 in a paired t-test design for the analysis of the ADOS, EOWPVT, ABC, ATEC, RBQ (FIGS. 4-11 show individual analyses), and blood and urine safety data (FIGS. 2 and 3 show individual analyses). Paired, non-parametric analysis was by Wilcoxon signed-rank sum test. Categorical data, such as the presence or absence of adverse events or historical symptoms was analyzed by Fisher's exact test. Two-way ANOVA (treatment×time), with Sidak post hoc correction, was used to analyze the 6-week summaries captured by the ADOS, CGI, and additional blood and urine safety analysis. Cohen's d—calculated as the mean difference of the paired, within-subject scores before and after treatment, divided by the standard deviation of the differences—was used as an estimate of effect size.

[4] = EOWPVT Vocabulary, 45 days after treatment
[5] = ATEC Language, 7 days after treatment
[6] = ATEC Language, 45 days after treatment
[7] = ATEC Sociability, 7 days after treatment
[8] = ATEC Total, 7 days after treatment

Which “mean ADOS comparison score” value (males with ASD [1]; 6-weeks after suramin (8.6±0.4 at baseline)) does the source give for Cc1ccc(C(=O)Nc2ccc(S(=O)(=O)O)c3cc(S(=O)(=O)O)cc(S(=O)(=O)O)c23)cc1NC(=O)c1cccc(NC(=O)Nc2cccc(C(=O)Nc3cc(C(=O)Nc4ccc(S(=O)(=O)O)c5cc(S(=O)(=O)O)cc(S(=O)(=O)O)c45)ccc3C)c2)c1 [Suramin, suramin] here?
Its value is 7.0±0.3.

And the “ADOS-2 comparison scores improved by an average of (mean±SD)” value (males with ASD [1]; 6-weeks, suramin treatment group, n=5)?
The value was −1.6±0.55 points.

What about the “2-day ADOS scores” value (males with ASD [1]; 2 days after suramin (FIG. 10A)) of the same compound?
Its value is “no change”.

And the “Difference from baseline (mean ± sd)” value (males with ASD [1]; ADOS-2 Comparison)?
Its value is −1.6 ± 0.55.

And the “d (Cohen's d)” value (males with ASD [1]; ADOS-2 Comparison)?
Its value is 2.9.

What about the “Difference from baseline (mean ± sd)” value (males with ASD [1]; ADOS-2 Raw) of the same compound?
The value was −4.6 ± 1.9.

And the “d (Cohen's d)” value (males with ASD [1]; ADOS-2 Raw)?
The value was 2.4.

And the “Difference from baseline (mean ± sd)” value (males with ASD [1]; ADOS-2 Restr/Rep (restricted or repetitive behaviors))?
Its value is −1.4 ± 0.89.

What about the “d (Cohen's d)” value (males with ASD [1]; ADOS-2 Restr/Rep) of the same compound?
Its value is 1.6.

What about the “Difference from baseline (mean ± sd)” value (males with ASD [1]; ADOS-2 Social) of the same compound?
The value was −3.2 ± 1.9.

What about the “d (Cohen's d)” value (males with ASD [1]; ADOS-2 Social) of the same compound?
The value was 1.7.

And the “Difference from baseline (mean ± sd)” value (males with ASD [2]; [4])?
Its value is −4.2 ± 8.3.

And the “d (Cohen's d)” value (males with ASD [2]; [4])?
Its value is −0.51.

What about the EOWPVT scores (males with ASD [2]; after single 20 mg/kg IV dose) of the same compound?
Its EOWPVT scores is “did not change”.

And the “Difference from baseline (mean ± sd)” value (males with ASD [3]; [5])?
The value was −2.2 ± 1.5.

What about the “d (Cohen's d)” value (males with ASD [3]; [5]) of the same compound?
The value was 1.4.

And the “Difference from baseline (mean ± sd)” value (males with ASD [3]; [6])?
The value was −2.0 ± 1.4.

And the “d (Cohen's d)” value (males with ASD [3]; [6])?
The value was 1.4.

What about the “Difference from baseline (mean ± sd)” value (males with ASD [3]; [7]) of the same compound?
Its value is −3.6 ± 2.6.

What about the “d (Cohen's d)” value (males with ASD [3]; [7]) of the same compound?
The value was 1.4.

And the “Difference from baseline (mean ± sd)” value (males with ASD [3]; [8])?
The value was −10 ± 7.7.

And the “d (Cohen's d)” value (males with ASD [3]; [8])?
The value was 1.3.
